This assay addresses MMP-9 (Homo sapiens, UniProt P14780). Briefly: MMP-9 inhibition assay (fluorimetric, DQ gelatin substrate). The format is biochemical. The conditions noted are these: recombinant MMP-9 (Merck-Millipore for examples 1 to 9 and comparative examples; Enzo for examples 10 to 16), DQ gelatin 50 μg/mL, 4 hours at room temperature, pH 7.6. As to the method: All the experiments were done in 1× reaction buffer, which was obtained from a 10× reaction buffer solution. The content of the 10× reaction buffer was: 50 mL of 0.5 M Tris-HCl, 1.5 M NaCl, 50 mM CaCl2 and 2 mM sodium azide at pH 7.6. To obtain the 1× reaction buffer 4 mL of the 10× reaction buffer were diluted in 36 mL of H2O.
Recombinant MMP-9 expressed was obtained from Merck-Millipore (catalog number PF140-5UG, used in examples 1 to 9 and comparative examples) and Enzo (catalog number-SE360-0010, used in examples 10 to 16). DQ gelatin from pig skin fluorescein conjugated (MMP-9 substrate) was obtained from Life Technologies (catalog number E12055).
Preparation of the MMP-9 for the activity assay: MMP-9 was provided as a stock solution (0.1 mg/mL). The enzyme was diluted in 1× reaction buffer to a final concentration of 5 μg/mL.
Preparation of the DQ gelatin (substrate) solution for the activity assay: the solid form of the substrate was dissolved in water in order to obtain a stock solution of 1 mg/mL.
Procedure: The enzymatic assays were performed in 96-well microtiter plate, which allowed simultaneous monitoring of multiple reactions. For each reaction, 84.6 μL of 1× reaction buffer (pH 7.6), […] of MMP-9 (final concentration 85 ng/mL) and 2 μL of the corresponding new compound were added to each well. A stock solution of new compound was prepared in DMSO (100 mM), and dilutions were prepared from this stock solution with DMSO. Finally, to the mixture contained in each well 10 μL of the substrate were added (final concentration 50 μg/mL). The reaction was incubated for 4 hours at room temperature in an orbital shaker (100 rpm).
The inhibitory activity of the new compound was measured fluorimetrically. The excitation and emission wavelengths were 483 and 525 nm, respectively.
Inhibitory activity at several concentration points (ranging from 100 pM to 200 μM MMP) were measured for each compound. The inhibitory activity on MMP-2 and MMP-9 was calculated according to eq 1. For each new compound, the fluorescence in the presence (a) and in the absence (b) of the corresponding MMP was measured. The maximum fluorescence (0% inhibitory activity) was obtained from a sample of the corresponding MMP in the absence of inhibitory compounds. To estimate the inhibitory potency of the novel compounds, activities were plotted against the log concentration of the compound, adjusting to a sigmoid curve using GraphPad Prism software, and the IC50 value, defined as the concentration of compound required to inhibit 50% of the corresponding MMP activity, was determined from resulting curve.
a corresponds to fluorescence intensity in the presence of substrate+test compound+MMP
b corresponds to the fluorescence intensity in the presence of substrate+tested compound
c corresponds to the fluorescence intensity in the presence of substrate+MMP
d corresponds to the fluorescence intensity of the presence of substrate

In US10414797B2, “Gelatinase inhibitors and use thereof” (Iproteos S.L, priority 2015, dated 2019) one finds IC50 data, which are given here for one molecule.

Chain of MMP-9 (P14780 107-707 limits assumed): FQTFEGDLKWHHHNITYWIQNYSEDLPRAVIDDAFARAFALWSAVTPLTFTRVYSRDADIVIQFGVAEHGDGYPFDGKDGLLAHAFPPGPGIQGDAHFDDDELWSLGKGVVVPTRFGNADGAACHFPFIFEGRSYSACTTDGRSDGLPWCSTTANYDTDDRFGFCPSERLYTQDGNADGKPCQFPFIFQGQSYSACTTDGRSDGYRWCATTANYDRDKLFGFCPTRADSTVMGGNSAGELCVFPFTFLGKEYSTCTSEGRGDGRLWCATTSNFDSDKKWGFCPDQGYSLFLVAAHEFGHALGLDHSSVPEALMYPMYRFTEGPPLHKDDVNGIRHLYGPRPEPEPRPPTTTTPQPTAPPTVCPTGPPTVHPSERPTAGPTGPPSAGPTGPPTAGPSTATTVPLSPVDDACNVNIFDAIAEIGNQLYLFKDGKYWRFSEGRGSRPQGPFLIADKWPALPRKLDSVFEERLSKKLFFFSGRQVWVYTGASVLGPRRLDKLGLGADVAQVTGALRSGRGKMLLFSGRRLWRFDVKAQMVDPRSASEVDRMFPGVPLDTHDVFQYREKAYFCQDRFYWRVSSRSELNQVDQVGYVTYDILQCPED

Regarding `CCCC(CCC)C(=O)N1CCC[C@H]1C(=O)N(C)[C@H](C(=O)N[C@@H](CCNC(=O)c1cc(F)cc(F)c1)C(=O)NO)C(C)CC` (stereo partly drawn) [Example 8, (2S)—N-[(1S)-1-[[(1S)-3-[(3,5-difluorobenzoyl)amino]-1-(hydroxycarbamoyl)propyl]carbamoyl]-2-methyl-butyl]-N-methyl-1-(2-propylpentanoyl)pyrrolidine-2-carboxamide], the IC50 stood at 263 nM.

As usually defined, the IC50 is the point on the concentration scale where inhibition reaches its midpoint.
